These results are taken from paper PMC9090609 (RSC Advances, 2018).

This experiment deals with E.c.-ALDC (acetolactate decarboxylase from Enterobacter cloacae). Put plainly: circular dichroism at […] nm, formation of. It is filed as biochemical. To be noted: pH 6, 30 °C; racemic substrate 5.3-53.4 mM. For orientation: Circular dichroism is the unequal absorption of left and right circularly polarised light.

For orientation: Km means the substrate concentration at which the rate is half of its maximum. With `CC(=O)C(C)(O)C(=O)O` (racemic) [(±)-AL], the Km amounted to 12.2 mM.
